# Target: MCH receptor (Homo sapiens, UniProt Q99705)
# Test: High throughput functional screening FLIPR/FDSS6000: inhibition of MCH-evoked intracellular Ca2+ changes
# Type: cell-based
# Details: class by percent of control at 10^-7 M or IC50
# Method in brief: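 Antagonism is measured as inhibition of the intracellular calcium rise triggered by 50 nM MCH in cells bearing a constitutively active, non-endogenous form of the receptor. Cells are dye-loaded with Fluo4-AM and exposed to compound for 3 min at 37° C before agonist addition.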
row,SMILES,class
1,CC(C)c1cccc(C(C)C)c1NC(=O)NC[C@H]1CC[C@@H](Nc2nc(N(C)C)c3ccccc3n2)CC1 [compound 468],1 (Class 1: The value of percent of control at 10^−7 M was less than 40% or the value of IC50 was less than 50 nM.)
2,"CN(C)c1nc(N[C@H]2CC[C@@H](CNC(=O)Nc3ccccc3OC(F)F)CC2)nc2ccccc12 [compound 469, N-[2-(difluoromethoxy)phenyl]-N′-[(cis-4-{[4-(dimethylamino)quinazolin-2-yl]amino}cyclohexyl)methyl]urea]",2 (Class 2: The value of percent of control at 10^−7 M was from 40% to 60% or the value of IC50 was from 50 nM to 200 nM.)
3,"COC(=O)c1ccccc1NC(=O)NC[C@H]1CC[C@@H](Nc2nc(N(C)C)c3ccccc3n2)CC1 [compound 470, methyl 2-[({[(cis-4-{[4-(dimethylamino)quinazoalin-2-yl]amino}cyclohexyl)methyl]amino}carbonyl)amino]benzoate]",3 (Class 3: The value of percent of control at 10^−7 M was more than 60% or the value of IC50 was more than 200 nM.)
4,"CSc1ccccc1NC(=O)NC[C@H]1CC[C@@H](Nc2nc(N(C)C)c3ccccc3n2)CC1 [compound 471, N-[(cis-4-{[4-(dimethylamino)quinazolin-2-yl]amino}cyclohexyl)methyl]-N′-[2-(methylthio)phenyl]urea]",2 (Class 2: The value of percent of control at 10^−7 M was from 40% to 60% or the value of IC50 was from 50 nM to 200 nM.)
5,"CN(C)c1nc(N[C@H]2CC[C@@H](CNC(=O)Nc3c(Cl)c(Cl)cc(Cl)c3Cl)CC2)nc2ccccc12 [compound 472, N-[(cis-4-{[4-(dimethylamino)quinazolin-2-yl]amino}cyclohexyl)methyl]-N′-(2,3,5,6-tetrachlorophenyl)urea]",2 (Class 2: The value of percent of control at 10^−7 M was from 40% to 60% or the value of IC50 was from 50 nM to 200 nM.)
6,Cc1ccc([N+](=O)[O-])c(NC(=O)NC[C@H]2CC[C@@H](Nc3nc(N(C)C)c4ccccc4n3)CC2)c1C [compound 473],1 (Class 1: The value of percent of control at 10^−7 M was less than 40% or the value of IC50 was less than 50 nM.)
7,CN(C)c1nc(N[C@H]2CC[C@@H](CNC(=O)Nc3cc(Cl)c(Cl)cc3Cl)CC2)nc2ccccc12 [compound 474],3 (Class 3: The value of percent of control at 10^−7 M was more than 60% or the value of IC50 was more than 200 nM.)
8,"CN(C)c1nc(N[C@H]2CC[C@@H](CNC(=O)Nc3c(F)cc(Br)cc3Br)CC2)nc2ccccc12 [compound 476, N-(2,4-dibromo-6-fluorophenyl)-N′-[(cis-4-{[4-(dimethylamino)quinazolin-2-yl]amino}cyclohexyl)methyl]urea]",1 (Class 1: The value of percent of control at 10^−7 M was less than 40% or the value of IC50 was less than 50 nM.)
9,CN(C)c1nc(N[C@H]2CC[C@@H](CNC(=O)Nc3ccc(Br)cc3Br)CC2)nc2ccccc12 [compound 477],3 (Class 3: The value of percent of control at 10^−7 M was more than 60% or the value of IC50 was more than 200 nM.)
10,"CN(C)c1nc(N[C@H]2CC[C@@H](CNC(=O)NCc3ccc(Cl)cc3Cl)CC2)nc2ccccc12 [compound 478, N-(2,4-dichlorobenzyl)-N′-[(cis-4-{[4-(dimethylamino)quinazolin-2-yl]amino}cyclohexyl)methyl]urea]",2 (Class 2: The value of percent of control at 10^−7 M was from 40% to 60% or the value of IC50 was from 50 nM to 200 nM.)
11,COc1ccc(NC(=O)NC[C@H]2CC[C@@H](Nc3nc(N(C)C)c4ccccc4n3)CC2)c(OC)c1 [compound 479],3 (Class 3: The value of percent of control at 10^−7 M was more than 60% or the value of IC50 was more than 200 nM.)
12,Cc1ccc(C)c(NC(=O)NC[C@H]2CC[C@@H](Nc3nc(N(C)C)c4ccccc4n3)CC2)c1 [compound 481],3 (Class 3: The value of percent of control at 10^−7 M was more than 60% or the value of IC50 was more than 200 nM.)
13,"CN(C)c1nc(N[C@H]2CC[C@@H](CNC(=O)Nc3c(Br)cc(F)cc3Br)CC2)nc2ccccc12 [compound 482, N-(2,6-dibromo-4-fluorophenyl)-N′-[(cis-4-{[4-(dimethylamino)quinazolin-2-yl]amino}cyclohexyl)methyl]urea]",1 (Class 1: The value of percent of control at 10^−7 M was less than 40% or the value of IC50 was less than 50 nM.)
14,"CN(C)c1nc(N[C@H]2CC[C@@H](CNC(=O)Nc3c(Cl)cccc3Cl)CC2)nc2ccccc12 [compound 483, N-(2,6-dichlorophenyl)-N′-[(cis-4-{[4-(dimethylamino)quinazolin-2-yl]amino}cyclohexyl)methyl]urea]",1 (Class 1: The value of percent of control at 10^−7 M was less than 40% or the value of IC50 was less than 50 nM.)
15,"CCc1cccc(CC)c1NC(=O)NC[C@H]1CC[C@@H](Nc2nc(N(C)C)c3ccccc3n2)CC1 [compound 484, N-(2,6-diethylphenyl)-N′-[(cis-4-{[4-(dimethylamino)quinazolin-2-yl]amino}cyclohexyl)methyl]urea]",1 (Class 1: The value of percent of control at 10^−7 M was less than 40% or the value of IC50 was less than 50 nM.)
16,CN(C)c1nc(N[C@H]2CC[C@@H](CNC(=O)Nc3ccccc3Cc3ccccc3)CC2)nc2ccccc12 [compound 485],3 (Class 3: The value of percent of control at 10^−7 M was more than 60% or the value of IC50 was more than 200 nM.)

row,SMILES,class
1,Cc1ccc(Cl)c(NC(=O)NC[C@H]2CC[C@@H](Nc3nc(N(C)C)c4ccccc4n3)CC2)c1 [compound 486],2 (Class 2: The value of percent of control at 10^−7 M was from 40% to 60% or the value of IC50 was from 50 nM to 200 nM.)
2,CN(C)c1nc(N[C@H]2CC[C@@H](CNC(=O)Nc3cc([N+](=O)[O-])ccc3Cl)CC2)nc2ccccc12 [compound 487],3 (Class 3: The value of percent of control at 10^−7 M was more than 60% or the value of IC50 was more than 200 nM.)
3,CN(C)c1nc(N[C@H]2CC[C@@H](CNC(=O)Nc3c(Cl)cccc3C(F)(F)F)CC2)nc2ccccc12 [compound 488],1 (Class 1: The value of percent of control at 10^−7 M was less than 40% or the value of IC50 was less than 50 nM.)
4,Cc1cccc(Cl)c1NC(=O)NC[C@H]1CC[C@@H](Nc2nc(N(C)C)c3ccccc3n2)CC1 [compound 489],1 (Class 1: The value of percent of control at 10^−7 M was less than 40% or the value of IC50 was less than 50 nM.)
5,"CN(C)c1nc(N[C@H]2CC[C@@H](CNC(=O)NCc3ccccc3Cl)CC2)nc2ccccc12 [compound 490, N-(2-chlorobenzyl)-N′-[(cis-4-{[4-(dimethylamino)quinazolin-2-yl]amino}cyclohexyl)methyl]urea]",1 (Class 1: The value of percent of control at 10^−7 M was less than 40% or the value of IC50 was less than 50 nM.)
6,CCOC(=O)c1ccccc1NC(=O)NC[C@H]1CC[C@@H](Nc2nc(N(C)C)c3ccccc3n2)CC1 [compound 491],3 (Class 3: The value of percent of control at 10^−7 M was more than 60% or the value of IC50 was more than 200 nM.)
7,"CCc1cccc(C(C)C)c1NC(=O)NC[C@H]1CC[C@@H](Nc2nc(N(C)C)c3ccccc3n2)CC1 [compound 493, N-[(cis-4-{[4-(dimethylamino)quinazolin-2-yl]amino}cyclohexyl)methyl]-N′-(2-ethyl-6-isopropylphenyl)urea]",1 (Class 1: The value of percent of control at 10^−7 M was less than 40% or the value of IC50 was less than 50 nM.)
8,"CCc1ccccc1NC(=O)NC[C@H]1CC[C@@H](Nc2nc(N(C)C)c3ccccc3n2)CC1 [compound 494, N-[(cis-4-{[4-(dimethylamino)quinazolin-2-yl]amino}cyclohexyl)methyl]-N′-(2-ethylphenyl)urea]",1 (Class 1: The value of percent of control at 10^−7 M was less than 40% or the value of IC50 was less than 50 nM.)
9,CN(C)c1nc(N[C@H]2CC[C@@H](CNC(=O)Nc3cccc(C(F)(F)F)c3F)CC2)nc2ccccc12 [compound 495],3 (Class 3: The value of percent of control at 10^−7 M was more than 60% or the value of IC50 was more than 200 nM.)
10,CN(C)c1nc(N[C@H]2CC[C@@H](CNC(=O)Nc3cc(C(F)(F)F)ccc3F)CC2)nc2ccccc12 [compound 496],3 (Class 3: The value of percent of control at 10^−7 M was more than 60% or the value of IC50 was more than 200 nM.)
11,Cc1ccc(F)c(NC(=O)NC[C@H]2CC[C@@H](Nc3nc(N(C)C)c4ccccc4n3)CC2)c1 [compound 497],3 (Class 3: The value of percent of control at 10^−7 M was more than 60% or the value of IC50 was more than 200 nM.)
12,"CN(C)c1nc(N[C@H]2CC[C@@H](CNC(=O)Nc3cc([N+](=O)[O-])ccc3F)CC2)nc2ccccc12 [compound 498, N-[(cis-4-{[4-(dimethylamino)quinazolin-2-yl]amino}cyclohexyl)methyl]-N′-(2-fluoro-5-nitrophenyl)urea]",2 (Class 2: The value of percent of control at 10^−7 M was from 40% to 60% or the value of IC50 was from 50 nM to 200 nM.)
13,"CN(C)c1nc(N[C@H]2CC[C@@H](CNC(=O)NCc3ccccc3F)CC2)nc2ccccc12 [compound 499, N-[(cis-4-{[4-(dimethylamino)quinazolin-2-yl]amino}cyclohexyl)methyl]-N′-(2-fluorobenzyl)urea]",2 (Class 2: The value of percent of control at 10^−7 M was from 40% to 60% or the value of IC50 was from 50 nM to 200 nM.)
14,"CN(C)c1nc(N[C@H]2CC[C@@H](CNC(=O)Nc3ccccc3I)CC2)nc2ccccc12 [compound 500, N-[(cis-4-{[4-(dimethylamino)quinazolin-2-yl]amino}cyclohexyl)methyl]-N′-(2-iodophenyl)urea]",1 (Class 1: The value of percent of control at 10^−7 M was less than 40% or the value of IC50 was less than 50 nM.)
15,Cc1cccc(C(C)C)c1NC(=O)NC[C@H]1CC[C@@H](Nc2nc(N(C)C)c3ccccc3n2)CC1 [compound 501],1 (Class 1: The value of percent of control at 10^−7 M was less than 40% or the value of IC50 was less than 50 nM.)
